The numbers were not newly measured in patent publication US20090104287A1, “Protocol for AIDS prevention and treatment by nutritional methods” (priority 2002, published 2009), which cites them from elsewhere.

The structures appear in SMILES notation.

In data set [1] the test system is HIV seropositive patients. Particulars: supplementation.
The subject of data set [2] is HIV-infected patients. Particulars: supplementation (usually given as N-acetyl cysteine).

For `CC(=O)N[C@@H](CS)C(=O)O` [N-acetyl cysteine], the “replenishing whole blood and T cell glutathione” value in data set [1] was “often seems effective in replenishing both whole blood and T cell glutathione”.
In the case of `N[C@@H](CS)C(=O)O` [cysteine], the “glutathione in CD4 T cells” value in data set [2] was “replenishes low glutathione in CD4 T cells”.
